Columns and labels:
ErbB2 or EGFR = biological target: T1, ErbB2 or EGFR; experiment: ErbB enzyme substrate phosphorylation assay (HTRF), Method B (enzyme pre-incubated with compound 1 hour); type: biochemical; conditions: Table 1, enzyme Method B: enzyme mix incubated with compound 1 hour at 20° C., reaction started with substrate mix; class over ErbB2 or EGFR
T1 construct: enzymes purified from a baculovirus expression system
Method in brief: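 Baculovirus-expressed kinase (0.8 nM EGFR or 10 nM ErbB2 in enzyme mix) phosphorylated biotinylated Peptide C (0.8 µM in substrate mix) with 20 µM ATP in substrate mix, MOPS pH 7.5, MnCl2, 90 min at 20 °C. Method A started with enzyme; Method B pre-incubated enzyme with compound 1 h at 20 °C. HTRF read-out; IC50 from 12-point curve (0.00027–47.6 µM), reported as pIC50.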

Colo205 tumor cell lines [1] = experiment: Methylene blue growth inhibition assay (cellular Method A); type: cell-based; conditions: Homo sapiens, COLO 205, 72 h, Table 3, Method A methylene blue, 3 days
Protocol: (§1) Human breast (BT474) and head and neck (HN5) were cultured in low glucose DMEM (Life Technologies 12320-032) containing 10% fetal bovine serum (FBS). Human colon tumor cells (Colo205) were cultured in DMEM (Invitrogen, 10564) containing 10% FBS. The SV40 transformed human mammary epithelial cell line to HB4a was transfected with either human H-ras cDNA (HB4a r4.2) or the human c-ErbB2 cDNA (HB4a c5.2). The HB4a clones were cultured in RPMI containing 10% FBS, insulin ([…]), hydrocortisone ([…]), supplemented with the selection agent hygromycin B ([…]). All lines were grown in a humidified incubator at 37° C. in 95% air, 5% CO2. Cells were harvested using trypsin/EDTA, counted using a haemocytometer, and plated in 100 microliters of the appropriate media, at the following densities, in a 96-well tissue culture plate (Falcon 3075): BT474 10,000 cells/well, HN5 3,000 cells/well. The next day, compounds were diluted in DMEM containing […] gentamicin, at twice the final required concentration, from 10 mM stock solutions in DMSO. 100 microliters/well of these dilutions were added to the 100 microliters of media currently on the cell plates. Medium containing 0.6% DMSO was added to control wells. Compounds diluted in DMEM were added to all cell lines. The final concentration of DMSO in all wells was 0.3%. Cells were returned to the incubator (37° C., […]) for 3 days. Medium was then removed by aspiration. Cell biomass was estimated by staining cells with 90 microliters per well methylene blue (Sigma M9140, 0.5% in 1:1 ethanol:water), and incubation at rt for at least 30 minutes. Stain was removed, and the plates rinsed by immersion in deionized water and air-dried. To release stain from the cells 100 microliters of solubilization solution was added (1% N-lauroyl sarcosine, Sodium salt, Sigma L5125, in PBS), and plates were shaken gently for about 30 minutes. Optical density at 620 nm was measured on a microplate reader. Percent inhibition of cell growth was calculated relative to vehicle treated control wells. Concentration of compound that inhibits 50% of control cell growth (IC50) was interpolated using nonlinear regression (Levenberg-Marquardt) and the equation, y=Vmax*(1−(x/(K+x)))+Y2, where “K” was equal to the IC50. Method B: Celltiter Glo® Growth Inhibition Assays

[2] = system: BT474 and HN5 tumor cell lines; experiment: as above; type: cell-based; conditions: Homo sapiens, BT-474 and HN5, 72 h; Table 2, Method A methylene blue, 3 days; class over BT474 and HN5
Protocol: as §1

Colo205 tumor cell lines [3] = experiment: Celltiter Glo growth inhibition assay (cellular Method B); type: cell-based; conditions: Homo sapiens, COLO 205, 72 h, Table 3, Method B Celltiter Glo, 3 days
Method in brief: (§2)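 BT474, HN5 and Colo205 cells were each grown in their own 10% FBS medium, then exposed to compound for 3 days at 37 °C with 0.3% final DMSO. Growth was read by CellTiter-Glo luminescence as percent inhibition versus vehicle, and IC50 was interpolated by nonlinear regression.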

[4] = system: BT474 and HN5 tumor cell lines; experiment: as above; type: cell-based; conditions: Homo sapiens, BT-474, 72 h; Table 2, Method B Celltiter Glo, 3 days; class over BT474 and HN5
Method in brief: as §2

SMILES | IC50 (Colo205 tumor cell lines [1]) [µM] | IC50 [2] [µM] | IC50 (Colo205 tumor cell lines [3]) [µM] | IC50 [4] [µM] | Activity (Method) (ErbB2 or EGFR)
O=C(Cc1cccs1)Nc1cccc(-c2nn3ccccc3c2-c2ccnc(Nc3cccc(F)c3)n2)c1 [Example 9, N-[3-(3-{2-[(3-Fluorophenyl)amino]-4-pyrimidinyl}pyrazolo[1,5-a]pyridin-2-yl)phenyl]-2-(2-thienyl)acetamide] | > 1 | > 1 | – | – | +++ (B) (at least one pIC50 measurement of greater than 7 against either ErbB2 or EGFR)
CN(C)CCOc1cccc(Nc2nccc(-c3c(-c4cccc(NC(=O)Cc5cccs5)c4)nn4ccccc34)n2)c1 [Example 15, N-[3-(3-{2-[(3-{[2-(Dimethylamino)ethyl]oxy}phenyl)amino]-4-pyrimidinyl}pyrazolo[1,5-a]pyridin-2-yl)phenyl]-2-(2-thienyl)acetamide] | 0.1 to 1 | 0.1 to 1 | – | – | +++ (B) (at least one pIC50 measurement of greater than 7 against either ErbB2 or EGFR)
O=C(Cc1cccs1)Nc1cccc(-c2nn3ccccc3c2-c2ccnc(Nc3ccc4c(c3)CNCC4)n2)c1 [Example 16, N-(3-{3-[2-(1,2,3,4-Tetrahydro-7-isoquinolinylamino)-4-pyrimidinyl]pyrazolo[1,5-a]pyridin-2-yl}phenyl)-2-(2-thienyl)acetamide] | 0.1 to 1 | 0.1 to 1 | – | – | +++ (B) (at least one pIC50 measurement of greater than 7 against either ErbB2 or EGFR)
CN(C)Cc1cccc(Nc2nccc(-c3c(-c4cccc(NC(=O)Cc5ccsc5)c4)nn4ccccc34)n2)c1 [Example 24, N-(3-{3-[2-({3-[(Dimethylamino)methyl]phenyl}-amino)-4-pyrimidinyl]pyrazolo[1,5-a]pyridin-2-yl}phenyl)-2-(3-thienyl)acetamide] | 0.1 to 1 | 0.1 to 1 | – | – | +++ (B) (at least one pIC50 measurement of greater than 7 against either ErbB2 or EGFR)
CN(C)Cc1cccc(Nc2nccc(-c3c(-c4cccc(NC(=O)Cc5c(F)cccc5F)c4)nn4ccccc34)n2)c1 [Example 25, 2-(2,6-Difluorophenyl)-N-(3-{3-[2-({3-[(dimethylamino)methyl]-phenyl}amino)-4-pyrimidinyl]pyrazolo[1,5-a]pyridin-2-yl}phenyl)acetamide] | 0.1 to 1 | > 1 | – | – | ++ (B) (at least one pIC50 measurement greater than 6 against either ErbB2 or EGFR but no measurement greater than pIC50 of 7)
CN(C)Cc1cccc(Nc2nccc(-c3c(-c4cccc(NC(=O)Cc5cccnc5)c4)nn4ccccc34)n2)c1 [Example 26, N-(3-{3-[2-({3-[(Dimethylamino)methyl]phenyl}amino)-4-pyrimidinyl]pyrazolo[1,5-a]pyridin-2-yl}phenyl)-2-(3-pyridinyl)acetamide] | > 1 | > 1 | – | – | ++ (B) (at least one pIC50 measurement greater than 6 against either ErbB2 or EGFR but no measurement greater than pIC50 of 7)
CN(C)Cc1cccc(Nc2nccc(-c3c(-c4cccc(NC(=O)Cc5ccccn5)c4)nn4ccccc34)n2)c1 [Example 27, N-(3-{3-[2-({3-[(Dimethylamino)methyl]phenyl}amino)-4-pyrimidinyl]pyrazolo[1,5-a]pyridin-2-yl}phenyl)-2-(2-pyridinyl)acetamide] | > 1 | > 1 | – | – | ++ (B) (at least one pIC50 measurement greater than 6 against either ErbB2 or EGFR but no measurement greater than pIC50 of 7)
Cc1ccc(OCCN(C)C)cc1Nc1nccc(-c2c(-c3ccc(F)c(NC(=O)Cc4cccs4)c3)nn3ccccc23)n1 [Example 62, N-[5-(3-{2-[(5-{[2-(Dimethylamino)ethyl]oxy}-2-methylphenyl)amino]-4-pyrimidinyl}pyrazolo[1,5-a]pyridin-2-yl)-2-fluorophenyl]-2-(2-thienyl)acetamide] | – | – | 0.1 to 1 | > 1 | + (B) (no pIC50 measurement greater than 6 against either ErbB2 or EGFR)

Continued, in another order:

IC50 (Colo205 tumor cell lines [1]) [µM] | IC50 [2] [µM] | IC50 (Colo205 tumor cell lines [3]) [µM] | IC50 [4] [µM] | SMILES | Activity (Method) (ErbB2 or EGFR)
0.1 to 1 | 0.1 to 1 | – | – | O=C(Cc1cccs1)Nc1cccc(-c2nn3ccccc3c2-c2ccnc(Nc3cccc(-c4cnco4)c3)n2)c1 [Example 1, N-{3-[3-(2-{[3-(1,3-oxazol-5-yl)phenyl]amino}-4-pyrimidinyl)pyrazolo[1,5-a]pyridin-2-yl]phenyl}-2-(2-thienyl)acetamide] | +++ (B) (at least one pIC50 measurement of greater than 7 against either ErbB2 or EGFR)
0.1 to 1 | < 0.1 | – | – | CN(C)CCCNc1ccc(Nc2nccc(-c3c(-c4cccc(NC(=O)Cc5cccs5)c4)nn4ccccc34)n2)cc1F [Example 2, N-[3-(3-{2-[(4-{[3-(Dimethylamino)propyl]amino}-3-fluorophenyl)amino]-4-pyrimidinyl}pyrazolo[1,5-a]pyridin-2-yl)phenyl]-2-(2-thienyl)acetamide] | +++ (B) (at least one pIC50 measurement of greater than 7 against either ErbB2 or EGFR)
0.1 to 1 | 0.1 to 1 | – | – | O=C(Cc1cccs1)Nc1cccc(-c2nn3ccccc3c2-c2ccnc(Nc3cccc(OCCN4CCCC4)c3)n2)c1 [Example 10, N-[3-(3-{2-[(3-{[2-(1-Pyrrolidinyl)ethyl]oxy}phenyl)amino]-4-pyrimidinyl}pyrazolo[1,5-a]pyridin-2-yl)phenyl]-2-(2-thienyl)acetamide] | +++ (B) (at least one pIC50 measurement of greater than 7 against either ErbB2 or EGFR)
0.1 to 1 | 0.1 to 1 | – | – | O=C(Cc1cccs1)Nc1cccc(-c2nn3ccccc3c2-c2ccnc(Nc3cccc(OCCCN4CCOCC4)c3)n2)c1 [Example 11, N-[3-(3-{2-[3-{[3-(4-Morpholinyl)propyl]oxy}phenylamino]-4-pyrimidinyl}pyrazolo[1,5-a]pyridin-2-yl)phenyl]-2-(2-thienyl)acetamide] | +++ (B) (at least one pIC50 measurement of greater than 7 against either ErbB2 or EGFR)
0.1 to 1 | 0.1 to 1 | – | – | CN(C)CCCOc1cccc(Nc2nccc(-c3c(-c4cccc(NC(=O)Cc5cccs5)c4)nn4ccccc34)n2)c1 [Example 12, N-[3-(3-{2-[(3-{[3-(Dimethylamino)propyl]oxy}phenyl)-amino]-4-pyrimidinyl}pyrazolo[1,5-a]pyridin-2-yl)phenyl]-2-(2-thienyl)acetamide] | +++ (B) (at least one pIC50 measurement of greater than 7 against either ErbB2 or EGFR)
0.1 to 1 | 0.1 to 1 | – | – | O=C(Cc1cccs1)Nc1cccc(-c2nn3ccccc3c2-c2ccnc(Nc3cccc(OCCCN4CCCC4)c3)n2)c1 [Example 13, N-[3-(3-{2-[(3-{[3-(1-Pyrrolidinyl)propyl]oxy}phenyl)amino]-4-pyrimidinyl}pyrazolo[1,5-a]pyridin-2-yl)phenyl]-2-(2-thienyl)acetamide] | +++ (B) (at least one pIC50 measurement of greater than 7 against either ErbB2 or EGFR)
0.1 to 1 | 0.1 to 1 | – | – | CCN(CC)CCOc1cccc(Nc2nccc(-c3c(-c4cccc(NC(=O)Cc5cccs5)c4)nn4ccccc34)n2)c1 [Example 14, N-[3-(3-{2-[(3-{[2-(Diethylamino)ethyl]oxy}phenyl)amino]-4-pyrimidinyl}pyrazolo[1,5-a]pyridin-2-yl)phenyl]-2-(2-thienyl)acetamide] | +++ (B) (at least one pIC50 measurement of greater than 7 against either ErbB2 or EGFR)
